This is an account of results in patent publication US20260151403A1, “NEK7 DEGRADERS AND METHODS OF USE THEREOF” (Captor Therapeutics S.A., priority 2022, published 2026).

One experiment has as its target NEK7-HiBiT protein (Homo sapiens, UniProt Q8TDX7). As to the kind of experiment: NEK7-HiBiT degradation assay (Nano-Glo HiBiT Lytic Assay) in HEK293 NEK7-HiBiT cells. In kind it is cell-based. Particulars: 24 h, conc. 0.1, 1 and 10 μM tested, concentration of the table values not stated, mean of 3 technical replicates. In outline:
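HEK293 cells with CRISPR knock-in N-terminal HiBiT-tagged NEK7 exposed to compound for 24 h at 37 °C, 5% CO2. Residual NEK7-HiBiT was read as Nano-Glo HiBiT lytic luminescence and expressed as % of DMSO control across triplicates; compounds run at 0.1, 1 and 10 μM.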

Experiment [1] concerns the target [NEK7]-[compound of formula (I)]-[CRBN/DDB1] complex (Homo sapiens, UniProt Q8TDX7+Q96SW2). As to the kind of experiment: AlphaLISA dose response ternary complex formation assay. To be noted: 1 μM compound; normalized to maximum signal of Compound 2 (positive control) and DMSO background; read-out: Normalized AlphaLISA ternary complex average signal at 1 μM molecule. In kind it is binding. An outline of the steps: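 Biotinylated NEK7 (200 nM) on streptavidin donor beads and 6×His-CRBN/Strep-DDB1 (200 nM) on anti-His acceptor beads, each at 40 μg/ml and preincubated 30 min, then mixed and added to compound in HBS pH 7.4, 0.1% Tween-20, 1 mM DTT, 2% DMSO. After 30 min at 25 °C, AlphaLISA signal was read (ex 680/em 615 nm) and normalised to DMSO background and maximal Compound 2 signal.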

Sequence of [NEK7]-[compound of formula (I)]-[CRBN/DDB1] complex (Q8TDX7 whole entry): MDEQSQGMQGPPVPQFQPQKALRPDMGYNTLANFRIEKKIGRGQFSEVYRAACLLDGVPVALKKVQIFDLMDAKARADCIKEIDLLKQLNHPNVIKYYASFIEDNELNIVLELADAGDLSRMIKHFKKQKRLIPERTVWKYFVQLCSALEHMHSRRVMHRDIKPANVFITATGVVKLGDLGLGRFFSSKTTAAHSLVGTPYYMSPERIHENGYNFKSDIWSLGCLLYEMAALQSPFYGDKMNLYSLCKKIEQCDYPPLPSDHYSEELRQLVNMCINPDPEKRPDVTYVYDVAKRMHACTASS
Sequence of [NEK7]-[compound of formula (I)]-[CRBN/DDB1] complex (Q96SW2 whole entry): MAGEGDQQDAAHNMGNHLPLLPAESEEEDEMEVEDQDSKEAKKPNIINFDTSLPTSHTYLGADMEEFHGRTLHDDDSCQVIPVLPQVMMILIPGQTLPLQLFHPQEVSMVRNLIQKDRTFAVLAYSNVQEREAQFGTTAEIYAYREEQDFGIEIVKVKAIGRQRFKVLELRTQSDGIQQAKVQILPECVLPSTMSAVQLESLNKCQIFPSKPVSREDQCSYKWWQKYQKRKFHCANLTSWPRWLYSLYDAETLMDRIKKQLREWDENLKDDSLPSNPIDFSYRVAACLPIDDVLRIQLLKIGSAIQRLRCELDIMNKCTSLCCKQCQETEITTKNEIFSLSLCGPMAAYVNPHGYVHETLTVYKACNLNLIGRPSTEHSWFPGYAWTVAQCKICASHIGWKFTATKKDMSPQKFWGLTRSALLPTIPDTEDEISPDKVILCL
Sequence of [NEK7]-[compound of formula (I)]-[CRBN/DDB1] complex (Q16531 whole entry partner): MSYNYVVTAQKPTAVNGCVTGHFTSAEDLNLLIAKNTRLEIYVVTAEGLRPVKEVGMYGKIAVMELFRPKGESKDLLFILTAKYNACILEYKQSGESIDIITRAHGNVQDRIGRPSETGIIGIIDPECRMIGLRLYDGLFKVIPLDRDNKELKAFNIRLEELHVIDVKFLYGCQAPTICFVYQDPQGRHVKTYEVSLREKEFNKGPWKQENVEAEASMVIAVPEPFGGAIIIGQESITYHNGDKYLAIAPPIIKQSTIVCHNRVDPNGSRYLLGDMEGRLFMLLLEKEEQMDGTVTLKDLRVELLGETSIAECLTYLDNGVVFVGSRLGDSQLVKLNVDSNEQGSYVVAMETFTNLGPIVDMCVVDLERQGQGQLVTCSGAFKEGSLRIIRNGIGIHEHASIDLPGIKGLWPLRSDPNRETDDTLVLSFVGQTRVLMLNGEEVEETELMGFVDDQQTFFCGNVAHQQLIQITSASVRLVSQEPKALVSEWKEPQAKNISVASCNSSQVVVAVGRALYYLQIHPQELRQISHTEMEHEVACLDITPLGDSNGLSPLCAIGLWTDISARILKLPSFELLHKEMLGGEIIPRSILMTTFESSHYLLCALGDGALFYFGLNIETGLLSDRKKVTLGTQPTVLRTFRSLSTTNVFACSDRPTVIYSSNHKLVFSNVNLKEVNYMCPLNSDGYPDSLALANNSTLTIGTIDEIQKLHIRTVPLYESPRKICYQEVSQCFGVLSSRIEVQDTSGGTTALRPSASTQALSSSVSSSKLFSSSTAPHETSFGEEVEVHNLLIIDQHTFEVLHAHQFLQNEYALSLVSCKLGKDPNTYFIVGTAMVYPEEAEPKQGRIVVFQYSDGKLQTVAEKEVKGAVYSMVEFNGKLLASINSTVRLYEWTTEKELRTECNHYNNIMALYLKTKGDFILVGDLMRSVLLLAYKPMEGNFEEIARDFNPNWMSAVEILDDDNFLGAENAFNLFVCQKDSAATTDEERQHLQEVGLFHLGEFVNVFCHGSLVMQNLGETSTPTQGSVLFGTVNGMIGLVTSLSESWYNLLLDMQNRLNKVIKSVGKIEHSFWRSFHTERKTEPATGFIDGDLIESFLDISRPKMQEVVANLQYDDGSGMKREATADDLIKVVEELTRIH
Sequence of NEK7-HiBiT protein (Q8TDX7 whole entry): as the sequence (Q8TDX7 whole entry) above
Sequence of NEK7-HiBiT protein (Q96SW2 whole entry, further chain): as the sequence (Q96SW2 whole entry) above
Sequence of NEK7-HiBiT protein (Q16531 whole entry partner): as the sequence (Q16531 whole entry partner) above

For `O=C1CCC(N2Cc3cc(-c4ccccn4)ccc3C2=O)C(=O)N1` (centres unmarked) [2(2), 3-(1-oxo-5-(pyridin-2-yl)isoindolin-2-yl)piperidine-2,6-dione], at NEK7-HiBiT protein, the “Levels of NEK7-HiBiT Protein (as a % of DMSO control)” value (from here on “Levels … (as a % of DMSO control)”) is “B (Levels of NEK7-HiBiT Protein > 25% and ≤50%)”. The activation at 1 µM in experiment [1] is > 80%.

On to `O=C1CCC(N2Cc3cc(-c4ccc(-c5ccccc5)cn4)ccc3C2=O)C(=O)N1` (centres unmarked) [4(2), 3-(1-oxo-5-(5-phenylpyridin-2-yl)isoindolin-2-yl)piperidine-2,6-dione], for which the “Levels … (as a % of DMSO control)” value on NEK7-HiBiT protein is “A (Levels of NEK7-HiBiT Protein ≤ 25%)”. The activation at 1 µM in experiment [1] is > 80%.

With `O=C1CCC(N2Cc3cc(C4CCCCN4)ccc3C2=O)C(=O)N1` (centres unmarked) [Compound 2, 3-(1-oxo-5-(piperidin-2-yl)isoindolin-2-yl)piperidine-2,6-dione], the “Levels … (as a % of DMSO control)” value at NEK7-HiBiT protein is reported as “A (Levels of NEK7-HiBiT Protein ≤ 25%)”. The activation at 1 µM in experiment [1] is > 80%.

For `Cc1c(C2CCCCN2)ccc2c1CN(C1CCC(=O)NC1=O)C2=O` (centres unmarked) [Compound 19, 3-(4-methyl-1-oxo-5-(piperidin-2-yl)isoindolin-2-yl)piperidine-2,6-dione], the “Levels … (as a % of DMSO control)” value at NEK7-HiBiT protein was “B (Levels of NEK7-HiBiT Protein > 25% and ≤50%)”. Also, the activation at 1 µM in experiment [1] was < 10%.

Consider `O=C1CCC(N2Cc3cc(C4CCCCN4)c(F)cc3C2=O)C(=O)N1` (centres unmarked) [Compound 23, 3-(6-fluoro-1-oxo-5-(piperidin-2-yl)isoindolin-2-yl)piperidine-2,6-dione], for which, at NEK7-HiBiT protein, the “Levels … (as a % of DMSO control)” value is “B (Levels of NEK7-HiBiT Protein > 25% and ≤50%)”. Moreover, the activation at 1 µM in experiment [1] was < 10%.

Turning to `CC1c2cc(C3CCCCN3)ccc2C(=O)N1C1CCC(=O)NC1=O` (centres unmarked) [Compound 25, 3-(3-methyl-1-oxo-5-(piperidin-2-yl)isoindolin-2-yl)piperidine-2,6-dione], on NEK7-HiBiT protein, the “Levels … (as a % of DMSO control)” value is “A (Levels of NEK7-HiBiT Protein ≤ 25%)”. Moreover, in experiment [1], the activation at 1 µM is > 80%.

As for `CC1c2cc(C3CCCCO3)ccc2C(=O)N1C1CCC(=O)NC1=O` (centres unmarked) [Compound 64, 3-(3-methyl-1-oxo-5-(tetrahydro-2H-pyran-2-yl)isoindolin-2-yl)piperidine-2,6-dione], the “Levels … (as a % of DMSO control)” value on NEK7-HiBiT protein was “A (Levels of NEK7-HiBiT Protein ≤ 25%)”. Further, the activation at 1 µM in experiment [1] is > 80%.
